Source: patent US20240002438A1, “MELANOCORTIN LIGANDS AND METHODS OF USE THEREOF” (REGENTS OF THE UNIVERSITY OF MINNESOTA, priority 2021, published 2024)
Read-outs that look alike come from different tables or passages of the source. Where a SMILES comes first, the peptide text is derived from it. [ ]: non-standard residue; d: D form. dPhe(4-I) = N[C@H](Cc1ccc(I)cc1)C(=O)O; 2Nal = N[C@@H](Cc1ccc2ccccc2c1)C(=O)O; d2Nal = N[C@H](Cc1ccc2ccccc2c1)C(=O)O

How the values were obtained:
mMC3R [1] = molecular target: T1, mMC3R (Mus musculus, UniProt P33033); test: mMC3R | Antagonist Potency Ki (nM); set-up: expressed in transfected cells; host or cells: HEK293
Source text: (§1) Table printed on a drawing sheet, FIGURE 18
(§2) Title: Tetrapeptide Antagonist Pharmacology at the Mouse Melanocortin Receptors.^a
Head of the field: mMC3R | Antagonist Potency Ki (nM)
(§3) First copying reader's note: Columns 4 and 7 are empty spacer columns as printed; the table runs off the bottom of the sheet (continued on the next sheet) and footnotes a and b are not printed here.
Target sequence in this assay (P33033 whole entry, looked up): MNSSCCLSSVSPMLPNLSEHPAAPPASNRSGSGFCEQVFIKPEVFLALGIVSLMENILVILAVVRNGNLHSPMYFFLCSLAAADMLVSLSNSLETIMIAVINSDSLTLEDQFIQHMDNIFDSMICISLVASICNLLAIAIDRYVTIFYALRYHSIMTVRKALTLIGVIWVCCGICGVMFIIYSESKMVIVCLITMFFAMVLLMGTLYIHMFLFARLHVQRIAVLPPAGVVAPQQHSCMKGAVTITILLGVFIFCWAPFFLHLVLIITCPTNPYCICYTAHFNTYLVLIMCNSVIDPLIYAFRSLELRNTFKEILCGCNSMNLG

mMC4R [2] = molecular target: T2, mMC4R (Mus musculus, UniProt P56450); test: mMC4R | Antagonist Potency Ki (nM); set-up: expressed in transfected cells; host or cells: HEK293
Source text: as §1, §2
Target sequence in this assay (P56450 whole entry, looked up): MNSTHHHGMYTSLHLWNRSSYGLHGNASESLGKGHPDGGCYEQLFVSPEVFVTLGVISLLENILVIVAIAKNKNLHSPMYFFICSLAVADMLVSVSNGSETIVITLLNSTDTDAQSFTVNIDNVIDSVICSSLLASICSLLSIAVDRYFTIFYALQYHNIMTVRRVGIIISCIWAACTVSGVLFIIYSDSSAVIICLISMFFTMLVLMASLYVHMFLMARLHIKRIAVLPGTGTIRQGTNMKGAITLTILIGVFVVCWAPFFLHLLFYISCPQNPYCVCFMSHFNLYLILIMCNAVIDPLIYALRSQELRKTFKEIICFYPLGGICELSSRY
Head of the field: mMC4R | Antagonist Potency Ki (nM)
as §3

mMC5R = mMC5R (Mus musculus, UniProt P41149); test: cAMP AlphaScreen agonist assay at mMC5R, HEK293 cells; settings: for mMC5R agonist activity: up to 100 μM
Chain of mMC5R (P41149 whole entry): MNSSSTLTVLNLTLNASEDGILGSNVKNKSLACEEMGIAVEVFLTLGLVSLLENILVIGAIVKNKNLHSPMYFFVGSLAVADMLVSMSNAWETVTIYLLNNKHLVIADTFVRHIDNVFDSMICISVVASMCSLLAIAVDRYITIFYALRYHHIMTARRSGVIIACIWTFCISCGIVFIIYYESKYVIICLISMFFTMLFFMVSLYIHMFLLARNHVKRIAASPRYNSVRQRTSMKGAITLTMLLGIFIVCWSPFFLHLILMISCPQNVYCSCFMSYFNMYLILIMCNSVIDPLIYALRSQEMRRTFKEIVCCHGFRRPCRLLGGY
Experimental: (§4) Following stimulation, streptavidin donor beads (0.5 μg) and biotinylated-cAMP (0.62 μmol) were added to the wells in a green light environment with 10 μL of lysis buffer (5 mM HEPES, 0.3% Tween-20, 0.1% BSA, pH=7.4) and the plates were incubated in the dark at room temperature for an additional 2 h. Plates were read on a Enspire (PerkinElmer) Alpha-plate reader using a pre-normalized assay protocol (set by the manufacturer).

mMC3R [3] = molecular target: T1, mMC3R; test: cAMP AlphaScreen antagonist assay at mMC3R, NDP-MSH as agonist, HEK293 cells; settings: for mMC3R antagonist activity: at the concentrations assayed; for mMC3R antagonist pA2: NDP-MSH as agonist, HEK293 cells stably expressing mMC3R
Target sequence in this assay (P33033 whole entry): as the sequence (P33033 whole entry, looked up) above

mMC4R [4] = molecular target: T2, mMC4R; test: cAMP AlphaScreen antagonist assay at mMC4R, NDP-MSH as agonist, HEK293 cells; settings: NDP-MSH as agonist; HEK293 cells stably expressing mMC4R
Target sequence in this assay (P56450 whole entry): as the sequence (P56450 whole entry, looked up) above
Experimental: as §4

mMC1R = mMC1R (Mus musculus, UniProt Q01727); settings: up to 100 μM
Chain of mMC1R (Q01727 whole entry): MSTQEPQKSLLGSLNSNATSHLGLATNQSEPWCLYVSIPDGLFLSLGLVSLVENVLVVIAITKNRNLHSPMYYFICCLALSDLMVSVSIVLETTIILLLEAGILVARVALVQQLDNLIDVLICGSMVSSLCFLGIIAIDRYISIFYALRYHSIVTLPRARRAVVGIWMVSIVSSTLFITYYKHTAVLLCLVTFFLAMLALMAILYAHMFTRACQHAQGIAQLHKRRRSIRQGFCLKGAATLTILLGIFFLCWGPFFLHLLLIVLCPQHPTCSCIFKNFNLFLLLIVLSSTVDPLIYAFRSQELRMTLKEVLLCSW
Experimental: as §4

CC(=O)N[C@H](Cc1ccc2ccccc2c1)C(=O)N[C@@H](CCCNC(=N)N)C(=O)N[C@H](Cc1ccc(I)cc1)C(=O)N[C@@H](CCCNC(=N)N)C(N)=O [21 | COR2-105, Ac-DNal(2’)-Arg-DPhe(pI)-Arg-NH2] (Ac-[d2Nal]R[dPhe(4-I)]R-NH2)
Ki (mMC3R [1]): 79 nM | Ki (mMC4R [2]): 2.5 nM

CC(=O)N[C@H](Cc1ccc2ccccc2c1)C(=O)N[C@@H](CCCNC(=N)N)C(=O)N[C@@H](Cc1ccc2ccccc2c1)C(=O)N[C@H](CCCCN)C(N)=O [22 | COR1-29-8, Ac-DNal(2’)-Arg-Nal(2’)-DLys-NH2] (Ac-[d2Nal]R[2Nal][dK]-NH2)
Ki (mMC3R [1]): 630 nM | Ki (mMC4R [2]): 16 nM

CC(=O)N[C@H](Cc1ccc2ccccc2c1)C(=O)N[C@@H](CCCNC(=N)N)C(=O)N[C@@H](Cc1ccc2ccccc2c1)C(=O)N[C@@H](CCCNC(=N)N)C(N)=O [24 | MDE10-28, Ac-DNal(2’)-Arg-Nal(2’)-Arg-NH2] (Ac-[d2Nal]R[2Nal]R-NH2)
Ki (mMC3R [1]): 100 nM | Ki (mMC4R [2]): 1.6 nM

CC(=O)N[C@H](Cc1ccc2ccccc2c1)C(=O)N[C@H](Cc1ccc2ccccc2c1)C(=O)N[C@H](Cc1ccc2ccccc2c1)C(=O)N[C@@H](CCCNC(=N)N)C(N)=O [compound 3, Ac-DNal(2′)-DNal(2′)-DNal(2′)-Arg-NH2] (Ac-[d2Nal][d2Nal][d2Nal]R-NH2)
EC50 (mMC5R): 30 to 800 nM | EC50 (mMC5R; read-out: mMC5R agonist EC50): 130 nM | mMC5R agonist activity (mMC5R): full mMC5R agonists | mMC3R antagonist activity (mMC3R [3]): did not act as antagonists

CC(=O)N[C@H](Cc1ccc2ccccc2c1)C(=O)N[C@H](Cc1ccc2ccccc2c1)C(=O)N[C@H](Cc1ccc(I)cc1)C(=O)N[C@@H](CCCNC(=N)N)C(N)=O [compound 9, Ac-DNal(2′)-DNal(2′)-DPhe(pI)-Arg-NH2] (Ac-[d2Nal][d2Nal][dPhe(4-I)]R-NH2)
EC50 (mMC5R): 30 to 800 nM | EC50 (mMC5R; read-out: mMC5R agonist EC50): 30 nM | mMC5R agonist activity (mMC5R): full mMC5R agonists | mMC3R antagonist activity (mMC3R [3]): did not act as antagonists

CC(=O)N[C@H](Cc1ccc(I)cc1)C(=O)N[C@H](Cc1ccc2ccccc2c1)C(=O)N[C@H](Cc1ccc2ccccc2c1)C(=O)N[C@@H](CCCNC(=N)N)C(N)=O [compound 27, Ac-DPhe(pI)-DNal(2′)-DNal(2′)-Arg-NH2] (Ac-[dPhe(4-I)][d2Nal][d2Nal]R-NH2)
mMC5R agonist activity (mMC5R): full mMC5R agonists | mMC3R antagonist activity (mMC3R [3]): did not act as antagonists

CC(=O)N[C@H](Cc1ccc(I)cc1)C(=O)N[C@H](Cc1ccc2ccccc2c1)C(=O)N[C@@H](Cc1ccc2ccccc2c1)C(=O)N[C@@H](CCCNC(=N)N)C(N)=O [compound 36, Ac-DPhe(pI)-DNal(2′)-Nal(2′)-Arg-NH2] (Ac-[dPhe(4-I)][d2Nal][2Nal]R-NH2)
EC50 (mMC5R): 30 to 800 nM | mMC5R agonist activity (mMC5R): full mMC5R agonists | mMC4R antagonist pA2 (mMC4R [4]): 5.8 | mMC3R antagonist activity (mMC3R [3]): did not act as antagonists

Ac-DNal(2′)-Arg-DPhe(pI)-Arg-NH2 [compound 21]
mMC1R agonist activity (mMC1R): full agonist activity

Ac-DNal(2′)-Arg-DPhe(pI)-DLys-NH2 [compound 19]
mMC1R agonist activity (mMC1R): full agonist activity

Ac-DNal(2′)-DNal(2′)-Trp-DLys-NH2 [compound 4]
mMC3R antagonist pA2 (mMC3R [3]): 5.8

Ac-DPhe(pI)-Arg-DPhe(pI)-Arg-NH2 [compound 45]
mMC1R agonist activity (mMC1R): full agonist activity

Ac-DPhe(pI)-Arg-DPhe(pI)-DLys-NH2 [compound 43]
mMC1R agonist activity (mMC1R): full agonist activity

Ac-DPhe(pI)-DNal(2′)-DNal(2′)-DLys-NH2 [compound 25]
mMC4R antagonist pA2 (mMC4R [4]): 6.3

Ac-DPhe(pI)-DNal(2′)-Trp-Arg-NH2 [compound 30]
mMC5R agonist activity (mMC5R): inactive | mMC4R antagonist pA2 (mMC4R [4]): 5.6

Ac-DPhe(pI)-DNal(2′)-Trp-DLys-NH2 [compound 28]
mMC4R antagonist pA2 (mMC4R [4]): 6.6 | mMC3R antagonist pA2 (mMC3R [3]): 5.7

Ac-[d2Nal]RW[dK]-NH2 [compound 16]
mMC4R antagonist pA2 (mMC4R [4]): 7.7

Ac-[d2Nal]R[2Nal]R-NH2 [compound 24]
mMC4R antagonist pA2 (mMC4R [4]): 8.8

Ac-[dPhe(4-I)]RW[dK]-NH2 [compound 40]
mMC4R antagonist pA2 (mMC4R [4]): 7.6
